One series has as its system U87. In words: MTT cell viability assay, U87 cells. Conditions: Homo sapiens, U-87 MG, 48 h, n = 3. Type of series: cell-based. On the procedure: (§1) MGC-803, SGC-7901, U87 and SMMC-7721 cell lines were cultured in DMEM supplemented with 10% foetal bovine serum, 100 IU/mL penicillin/streptomycin. The cells were incubated in an atmosphere containing 5% CO2 at 37 °C.
(§2) MGC-803, SGC-7901, U87 and SMMC-7721 cells were plated in 96-well plate at 7000 per well. Cells were incubated with the different concentrations of the compounds for 48 h. Subsequently, MTT (0.5 mg/mL) were used to test the cell viability, then 150 μL DMSO was added to each well after cells were incubated for 4 h and the absorbance was measured at 492 nm.
In general terms: Tetrazolium assays rely on reduction of a dye to a coloured formazan, in cell work by metabolically active cells.

Another series has as its system SMMC-7721. Briefly: MTT cell viability assay, SMMC-7721 cells. The series is classed as cell-based. Conditions: Homo sapiens, 48 h, n = 3. Here is the method: as §1, §2
For the next series, the system named is SGC-7901. Briefly: MTT cell viability assay, SGC-7901 cells. The series is classed as cell-based, human. The conditions noted are these: Homo sapiens, SGC-7901, 48 h, n = 3. On the procedure:
as §1, §2

For another series, the system named is MGC-803. In words: MTT cell viability assay, MGC-803 cells. The series is classed as cell-based. Conditions: Homo sapiens, MGC-803, 48 h, n = 3. Here is the method:
as §1, §2

The subject of the next series is L02. In words: MTT cell viability assay, L02 cells. The series is classed as cell-based. The conditions noted are these: Homo sapiens, n = 3.

As for `CCN(CC)C(=O)CCC(=O)OC(CC=C(C)C)C1=CC(=O)c2c(O)ccc(O)c2C1=O` (stereo not drawn) [Compound 22, 1-(5,8-dihydroxy-1,4-dioxo-1,4-dihydronaphthalen-2-yl)-4-methylpent-3-en-1-yl 4-(diethylamino)-4-oxobutanoate], the melting point (as a rule, the temperature, or range, at which the solid turns liquid) was found to be 77 °C. Besides, in the series on U87, the IC50 (usually the concentration needed to halve the response being measured) turned out to be 40.7 ± 4.7 µM. Besides, half-maximal inhibition in the series on SMMC-7721 (IC50) was put at 46.5 ± 1.7 µM. The IC50 in the series on SGC-7901 was found to be 19.8 ± 1.8 µM. This compound also registered an IC50 with MGC-803 of 9.4 ± 0.4 µM. For the same compound, the IC50 in the series on L02 was greater than 50 µM.
The compound `CC(C)=CCC(OC(=O)CCC(=O)Nc1cccc2ccccc12)C1=CC(=O)c2c(O)ccc(O)c2C1=O` (stereo not drawn) [Compound 16, 1-(5,8-dihydroxy-1,4-dioxo-1,4-dihydronaphthalen-2-yl)-4-methylpent-3-en-1-yl-4-(naphthalen-1-ylamino)-4-oxobutanoate] displayed a melting point of 127 °C. Further, the midpoint of inhibition with U87, the IC50, lay at 5.41 ± 0.67 µM. In the series with SMMC-7721, this compound displayed an IC50 of 24.3 ± 1.7 µM. This compound also displayed an IC50 in the series with SGC-7901 of 5.6 ± 2.6 µM. The compound further came in with an IC50 in the series with MGC-803 of 5.9 ± 2.6 µM. The IC50 in the series on L02 was found to be 13 ± 2.4 µM.
With `CC(C)=CCC(OC(=O)CCC(=O)N1CCOCC1)C1=CC(=O)c2c(O)ccc(O)c2C1=O` (stereo not drawn) [Compound 8, 1-(5,8-dihydroxy-1,4-dioxo-1,4-dihydronaphthalen-2-yl)-4-methylpent-3-en-1-yl 4-morpholino-4-oxobutanoate], the melting point came to 105 °C. The same compound registered an IC50 in the series on U87 of 10 ± 1.6 µM. Also, the IC50 in the series on SMMC-7721 is 16.7 ± 1.8 µM. This compound had an IC50 with SGC-7901 of 20 ± 3.9 µM. Besides, the IC50 with MGC-803 worked out at 10.4 ± 0.7 µM. For the same compound, the IC50 with L02 was greater than 50 µM.
For `COc1cccc2c1C(=O)c1c(O)c3c(c(O)c1C2=O)C[C@@](O)(C(=O)CO)C[C@@H]3O[C@H]1C[C@H](N)[C@H](O)[C@H](C)O1` [ADM, Adriamycin, reference compound], the 50% inhibitory concentration (IC50) in the series on U87 was 0.57 ± 0.32 µM; in the series on SMMC-7721 it was 0.46 ± 0.63 µM; with SGC-7901, 0.72 ± 0.12 µM; with MGC-803, 0.48 ± 0.06 µM; in the series with L02 it was greater than 100 µM.
For `CC(C)=CCC(OC(=O)CCC(=O)Nc1ccc(Br)cc1)C1=CC(=O)c2c(O)ccc(O)c2C1=O` (stereo not drawn) [Compound 14, 1-(5,8-dihydroxy-1,4-dioxo-1,4-dihydronaphthalen-2-yl)-4-methylpent-3-en-1-yl-4-((4-bromophenyl)amino)-4-oxobutanoate], the melting point came out at 105 °C. This compound also yielded an IC50 in the series on U87 greater than 100 µM. The compound further came in with an IC50 in the series on SMMC-7721 of 14.8 ± 0.1 µM. The concentration for half-maximal inhibition (IC50) in the series on SGC-7901 worked out at 10.7 ± 1.8 µM. The compound further displayed an IC50 in the series on MGC-803 of 10.2 ± 1.3 µM. The compound also had an IC50 in the series on L02 of 16.2 ± 1.7 µM.
As for `CC(C)=CCC(OC(=O)CCC(=O)NCCc1ccc(Br)cc1)C1=CC(=O)c2c(O)ccc(O)c2C1=O` (stereo not drawn) [Compound 19, 1-(5,8-dihydroxy-1,4-dioxo-1,4-dihydronaphthalen-2-yl)-4-methylpent-3-en-1-yl-4-((4-bromophenethyl)amino)-4-oxobutanoate], the melting point came to 134 °C. This compound also registered an IC50 with U87 of 9.1 ± 2.5 µM. For the same compound, inhibition in the series on SMMC-7721 was half-maximal at 17.9 ± 1 µM (IC50). The same compound yielded an IC50 with SGC-7901 of 7.6 ± 2.3 µM. Also, the IC50 in the series on MGC-803 came out at 5.7 ± 2.4 µM. Also, half-maximal inhibition with L02 (IC50) required 8.5 ± 0.4 µM.
Consider `CCCCCCN(CCCCCC)C(=O)CCC(=O)OC(CC=C(C)C)C1=CC(=O)c2c(O)ccc(O)c2C1=O` (stereo not drawn) [Compound 23, 1-(5,8-dihydroxy-1,4-dioxo-1,4-dihydronaphthalen-2-yl)-4-methylpent-3-en-1-yl 4-(dihexylamino)-4-oxobutanoate], for which the IC50 in the series on U87, in the series on SMMC-7721, in the series on SGC-7901, in the series with MGC-803 and in the series with L02 was greater than 100 µM each time.
`CC(C)=CCC(OC(=O)C=Cc1ccccc1)C1=CC(=O)c2c(O)ccc(O)c2C1=O` (stereo not drawn) [Compound 4, 1-(5,8-dihydroxy-1,4-dioxo-1,4-dihydronaphthalen-2-yl)-4-methylpent-3-en-1-yl cinnamate] came in with a melting point of 85 °C. Further, in the series on U87, the 50% inhibitory concentration (IC50) was determined as 65.7 ± 2.7 µM. The IC50 with SGC-7901 was 75.1 ± 0.4 µM. For the same compound, in the series with MGC-803, the concentration for half-maximal inhibition (IC50) was greater than 100 µM. In the series with L02, this compound displayed an IC50 greater than 100 µM.

Values taken from article PMC7144209, “Design, synthesis and anticancer activity of naphthoquinone derivatives” (Journal of Enzyme Inhibition and Medicinal Chemistry, 2020).
